# *1 amine or outer side, *2 acyl side, *3 side chain or, on linkers, in order; H or OH if unused. Where a SMILES comes first, the peptide text is derived from it. [ ]: non-standard residue; d: D form. The star is where a group is joined. X1 = O=C([C@H](CCON=Cc1c(Cl)cncc1Cl)N[*:1])[*:2]; Biotin = O=C1N[C@H]2[C@H](CS[C@H]2CCCCC(=O)*)N1; pY = N[C@@H](Cc1ccc(OP(=O)(O)O)cc1)C(=O)O; Ahx = NCCCCCC(=O)O
# B1: human DUSP14 C111S substrate-trapping mutant, O95147 1-198 (enzyme)
# chain: MSSRGHSTLPRTLMAPRMISEGDIGGIAQITSSLFLGRGSVASNRHLLQARGITCIVNATIEIPNFNWPQFEYVKVPLADMPHAPIGLYFDTVADKIHSVSRKHGATLVHSAAGVSRSATLCIAYLMKFHNVCLLEAYNWVKARRPVIRPNVGFWRQLIDYERQLFGKSTVKMVQTPYGIVPDVYEKESRHLMPYWGI
# Tests used:
# VH1 [1] = format: biochemical
# VH1 [2] = format: biochemical; remark: listed apart in the source
# [3] = molecular target: oxime-containing phosphopeptide 6f-w99; assay: SPR
# [4] = molecular target: oxime-containing phosphopeptide 6f-w202; assay: SPR
molecule,measurement,setting,value
CC(C)[C@H](NC(=O)CCCCCNC(=O)CCCC[C@@H]1SC[C@@H]2NC(=O)N[C@@H]21)C(=O)N[C@@H](CC(=O)O)C(=O)N[C@@H](C)C(=O)N[C@@H](CC(=O)O)C(=O)N[C@@H](CCC(=O)O)C(=O)N[C@@H](Cc1ccc(OP(=O)(O)O)cc1)C(=O)N[C@@H](CCON=Cc1c(Cl)cncc1Cl)C(N)=O [Peptide 6f-w202] ({Biotin-Ahx}-VDADE[pY][X1]-NH2),percent dephosphorylation,VH1 [1],43%
Ac-OtGGOt-NH2 [Peptide 15],"inhibition, VH1 compared with DUSP14",VH1 [2],greater for VH1 than for DUSP14
B1,Kd,[3],94 nM
same,Kd,[4],640 nM

# Reference: article PMC8132114 (ACS combinatorial science, 2019)
